What was measured:
UACC-62 = assay: Growth inhibition of human UACC62 cells assessed as cell growth at 10 uM after 48 hrs by sulforhodamine B assay; type: functional; conditions: UACC-62, 48 h, read-out: Activity
SW-620 = assay: Growth inhibition of human SW620 cells assessed as cell growth at 10 uM after 48 hrs by sulforhodamine B assay; type: functional; conditions: SW-620, 48 h, read-out: Activity
CCRF-CEM = assay: Growth inhibition of human CCRF-CEM cells after 48 hrs by sulforhodamine B assay; type: functional
Malme-3M [1] = assay: Growth inhibition of human MALME-3M cells after 48 hrs by sulforhodamine B assay; type: functional
NCI-H23 = assay: Growth inhibition of human NCI-H23 cells assessed as cell growth at 10 uM after 48 hrs by sulforhodamine B assay; type: functional; conditions: NCI-H23, 48 h, read-out: Activity
MDA-MB-435 = assay: Growth inhibition of human MDA-MB-435 cells assessed as cell growth at 10 uM after 48 hrs by sulforhodamine B assay; type: functional; conditions: MDA-MB-435, 48 h, read-out: Activity
NCI-H460 = assay: Growth inhibition of human NCI-H460 cells after 48 hrs by sulforhodamine B assay; type: functional; conditions: NCI-H460, 48 h
IGROV-1 [2] = assay: Growth inhibition of human IGROV1 cells after 48 hrs by sulforhodamine B assay; type: functional; conditions: IGROV-1, 48 h
UO-31 = assay: Growth inhibition of human UO31 cells assessed as cell growth at 10 uM after 48 hrs by sulforhodamine B assay; type: functional; conditions: UO-31, 48 h, read-out: Activity
HCT-116 = assay: Growth inhibition of human HCT116 cells assessed as cell growth at 10 uM after 48 hrs by sulforhodamine B assay; type: functional; conditions: HCT-116, 48 h, read-out: Activity
SF-268 [3] = assay: Growth inhibition of human SF268 cells after 48 hrs by sulforhodamine B assay; type: functional; conditions: SF-268, 48 h
PC-3 = assay: Growth inhibition of human PC3 cells after 48 hrs by sulforhodamine B assay; type: functional, cell-based; conditions: PC-3, 48 h
HOP-92 = assay: Growth inhibition of human HOP92 cells after 48 hrs by sulforhodamine B assay; type: functional, cell-based; conditions: HOP-92, 48 h
NCI-H522 = assay: Growth inhibition of human NCI-H522 cells after 48 hrs by sulforhodamine B assay; type: functional; conditions: NCI-H522, 48 h
A498 = assay: Growth inhibition of human A498 cells after 48 hrs by sulforhodamine B assay; type: functional, cell-based; conditions: A498, 48 h
[4] = Growth inhibition of human Hs 578T cells after 48 hrs by sulforhodamine B assay; type: functional
OVCAR-5 = assay: Growth inhibition of human OVCAR5 cells after 48 hrs by sulforhodamine B assay; type: functional; conditions: OVCAR-5, 48 h
M14 = assay: Growth inhibition of human M14 cells after 48 hrs by sulforhodamine B assay; type: functional; conditions: M14, 48 h
SN12C = assay: Growth inhibition of human SN12C cells after 48 hrs by sulforhodamine B assay; type: functional
IGROV-1 [5] = assay: Growth inhibition of human IGROV1 cells assessed as cell growth at 10 uM after 48 hrs by sulforhodamine B assay; type: functional; conditions: IGROV-1, 48 h, read-out: Activity
ACHN = assay: Growth inhibition of human ACHN cells assessed as cell growth at 10 uM after 48 hrs by sulforhodamine B assay; type: functional; conditions: read-out: Activity
SF-268 [6] = assay: Growth inhibition of human SF268 cells assessed as cell growth at 10 uM after 48 hrs by sulforhodamine B assay; type: functional; conditions: SF-268, 48 h, read-out: Activity
HOP-62 = assay: Growth inhibition of human HOP62 cells after 48 hrs by sulforhodamine B assay; type: functional; conditions: HOP-62, 48 h
SNB-75 = assay: Growth inhibition of human SNB75 cells after 48 hrs by sulforhodamine B assay; type: functional; conditions: SNB-75, 48 h
LOX IMVI [7] = assay: Growth inhibition of human LOXIMVI cells after 48 hrs by sulforhodamine B assay; type: functional
NCI-H226 = assay: Growth inhibition of human NCI-H226 cells after 48 hrs by sulforhodamine B assay; type: functional; conditions: NCI-H226, 48 h
MCF7 = assay: Growth inhibition of human MCF7 cells after 48 hrs by sulforhodamine B assay; type: functional; conditions: MCF7, 48 h
786-0 = assay: Growth inhibition of human 786-0 cells assessed as cell growth at 10 uM after 48 hrs by sulforhodamine B assay; type: functional; conditions: 786-0, 48 h, read-out: Activity
OVCAR-4 = assay: Growth inhibition of human OVCAR4 cells after 48 hrs by sulforhodamine B assay; type: functional; conditions: OVCAR-4, 48 h
Malme-3M [8] = assay: Growth inhibition of human MALME-3M cells assessed as cell growth at 10 uM after 48 hrs by sulforhodamine B assay; type: functional; conditions: read-out: Activity
SK-OV-3 = assay: Growth inhibition of human SKOV3 cells after 48 hrs by sulforhodamine B assay; type: functional; conditions: SK-OV-3, 48 h
LOX IMVI [9] = assay: Growth inhibition of human LOXIMVI cells assessed as cell growth at 10 uM after 48 hrs by sulforhodamine B assay; type: functional; conditions: read-out: Activity
SK-MEL-2 = assay: Growth inhibition of human SK-MEL-2 cells assessed as cell growth at 10 uM after 48 hrs by sulforhodamine B assay; type: functional; conditions: SK-MEL-2, 48 h, read-out: Activity
SF-295 = assay: Growth inhibition of human SF295 cells after 48 hrs by sulforhodamine B assay; type: functional, cell-based; conditions: SF-295, 48 h
[10] = read-out: LC50 (the source's name)

COc1cc(-c2nn(-c3cccc(NC(=O)c4cccc(C(F)(F)F)c4)c3)cc2-c2ccncc2)ccc1Cl
growth at 10 µM (UACC-62): 27.2% | growth at 10 µM (SW-620): 36% | GI50 (CCRF-CEM): 1450 nM | LC50 (CCRF-CEM): > 50000 nM | TGI (CCRF-CEM): > 50000 nM | GI50 (Malme-3M [1]): 1990 nM | LC50 (concentration killing 50% of starting cells) (Malme-3M [1]): > 50000 nM | TGI (Malme-3M [1]): > 50000 nM | growth at 10 µM (NCI-H23): 24.8% | growth at 10 µM (MDA-MB-435): -39.6% | GI50 (NCI-H460): 1450 nM | LC50 (NCI-H460): > 50000 nM | TGI (NCI-H460): 9270 nM | GI50 (IGROV-1 [2]): 1830 nM | LC50 (concentration killing 50% of cells) (IGROV-1 [2]): > 50000 nM | TGI (IGROV-1 [2]): > 50000 nM | growth at 10 µM (UO-31): 25.1% | growth at 10 µM (HCT-116): 8.15% | GI50 (SF-268 [3]): 2130 nM | TGI (SF-268 [3]): > 50000 nM | CC50 (SF-268 [3]; [10]): > 50000 nM | GI50 (PC-3): 1230 nM | IC50 (PC-3): 1230 nM | TGI (PC-3): > 50000 nM | CC50 (PC-3; [10]): > 50000 nM | GI50 (HOP-92): 555 nM | IC50 (HOP-92): 560 nM | LC50 (HOP-92): > 50000 nM | TGI (HOP-92): 3120 nM | GI50 (NCI-H522): 1050 nM | LC50 (concentration killing 50% of cells) (NCI-H522): > 50000 nM | TGI (NCI-H522): 3850 nM | GI50 (A498): 687 nM | IC50 (A498): 690 nM | TGI (A498): 2780 nM | CC50 (A498; [10]): > 50000 nM | GI50 [4]: 1070 nM | TGI [4]: > 50000 nM | CC50 [4, 10]: > 50000 nM | GI50 (OVCAR-5): 4010 nM | LC50 (concentration killing 50% of cells) (OVCAR-5): > 50000 nM | TGI (OVCAR-5): > 50000 nM | GI50 (M14): 1630 nM | LC50 (concentration killing 50% of cells) (M14): > 50000 nM | TGI (M14): > 50000 nM | GI50 (SN12C): 3310 nM | TGI (SN12C): > 50000 nM | CC50 (SN12C; [10]): > 50000 nM | growth at 10 µM (IGROV-1 [5]): 34% | growth at 10 µM (ACHN): 31.6% | growth at 10 µM (SF-268 [6]): 30.5% | TGI (HOP-62): > 50000 nM | CC50 (HOP-62; [10]): > 50000 nM | GI50 (SNB-75): 1130 nM | LC50 (lethal concentration, 50% net cell kill) (SNB-75): > 50000 nM | GI50 (LOX IMVI [7]): 1390 nM | LC50 (LOX IMVI [7]): > 50000 nM | TGI (LOX IMVI [7]): > 50000 nM | GI50 (NCI-H226): 1660 nM | TGI (NCI-H226): 27000 nM | CC50 (NCI-H226; [10]): > 50000 nM | GI50 (MCF7): 1430 nM | LC50 (MCF7): > 50000 nM | TGI (MCF7): > 50000 nM | growth at 10 µM (786-0): 29.8% | GI50 (OVCAR-4): 2280 nM | LC50 (concentration killing 50% of cells) (OVCAR-4): > 50000 nM | TGI (OVCAR-4): > 50000 nM | growth at 10 µM (Malme-3M [8]): 10.1% | GI50 (SK-OV-3): 2290 nM | TGI (SK-OV-3): > 50000 nM | CC50 (SK-OV-3; [10]): > 50000 nM | growth at 10 µM (LOX IMVI [9]): 11.4% | growth at 10 µM (SK-MEL-2): -38.6% | GI50 (SF-295): 1020 nM | IC50 (SF-295): 1020 nM | TGI (SF-295): 3000 nM | CC50 (SF-295; [10]): > 50000 nM

— ChEMBL document CHEMBL2440076, “New triarylpyrazoles as broad-spectrum anticancer agents: design, synthesis, and biological evaluation” (Eur J Med Chem, 2013)
